We go through six molecules from patent US12018059B2, “Human amylin analog polypeptides and methods of use” (Intarcia Therapeutics, Inc., priority 2018, dated 2024).

By clearance is commonly meant the volume of plasma or blood freed of the substance per unit of time. A higher clearance goes with efficient removal.

Positions of bridges follow the written chain, without caps; N, C: chain ends. Non-standard residues stand in square brackets, D forms with d. Residues, ends and D or L forms follow the SMILES beside them.

The data set in a line: Pharmacokinetics, 3-hour intravenous infusion of linear (non-acylated) polypeptides. Also noted: species or system Sprague-Dawley rats. The following applies: rat, in vivo, iv, 0.1 mg/kg. The procedure: Peptides were dissolved in sterile saline and administered as a 3-hour intravenous infusion to non-fasted male Sprague-Dawley rats (n=3 per group) via femoral vein cannula at a final dose of 0.100 mg/kg. […] Blood samples (approximately 250 μL) were collected for pharmacokinetic analysis via a jugular vein cannula at 0.25, 0.5, 1, 2, 3, 3.17, 3.33, 3.5, 4, 4.5, 5, and 6 hr post-start of infusion (long method) or at 1, 1.5, 2, 2.5, and 3 hr post-start of infusion (steady-state screening method). All samples were collected into microtainer tubes containing K2EDTA as anticoagulant and 25 μL of a protease inhibitor cocktail. Plasma was prepared by centrifugation and stored at −80° C. until analysis. The results of this analysis are shown in Table 9 and few exemplars in FIGS. 3a-3b.
A 60 μL aliquot of each plasma sample was placed into to a 96-well plate. To each well was added 6 μL of 0.5% Tween-20. Plates were then vortexed mixed for 10 minutes at 1200 rpm before 180 μL of 0.1% TFA in 2:1 ethanol:acetonitrile containing an appropriate internal standard was added to each well. Plates were vortex mixed for 5 min at 1300 rpm, and then centrifuged for 10 min at 2844×g. Supernatants (180 μL) were placed into a clean 96-well plate and evaporated under a nitrogen stream at 45° C. Residues were reconstituted in 80 μL of 20% acetonitrile (aq) containing 0.1% formic acid.
A […] aliquot of each plasma sample was diluted with […] of 10 mM ammonium acetate (pH 6.8) containing an appropriate internal standard and loaded onto an Oasis WCX microElution plate (Waters Corporation, Milford, MA) that had been pre-conditioned with […] of methanol and […] of deionized water. Samples were washed with […] of 5% ammonium hydroxide (aq) followed by […] of 20% acetonitrile in water. The analyte was eluted with […] of 5% formic acid in 75:25 acetonitrile:water. The eluent was dried under a nitrogen stream. Residues were reconstituted in 80 μL of 20% acetonitrile (aq) containing 0.1% formic acid.
All calibration standards were prepared in control rat plasma containing K2EDTA and protease inhibitor cocktail.
Samples and standards were analyzed by TurbolonSpray™ UPLC-MS/MS using a system consisting of a CTC HTS PAL auto-injector (Leap, Carrboro, NC), an Agilent Infinity 1290 system with column oven (Palo Alto, CA), a Valco switching valve (Houston, TX), and either an AB Sciex API 5600 TripleTOF™ or Sciex API 4000QTrap mass spectrometer (Framingham, MA). Samples were injected onto a 2.1×50 mm reverse phase C18 analytical column, typically a Waters CORTECS UPLC C18+, 1.6 μm (Waters Corporation, Milford, MA) or similar. […] Initial conditions consisted of 90% A and 10% B. The organic component was increased to 95% B over a period of 3-4 minutes, depending on the peptide. Typical flow rates were 600 μL/min. The column temperature was held constant at 40 or 50° C. Peptides were quantified by monitoring one or more product ions produced from a multiply charged parent ion.
`CC[C@H](C)[C@H](NC(=O)[C@@H]1CCCN1C(=O)CNC(=O)[C@H](Cc1ccccc1)NC(=O)[C@H](CC(N)=O)NC(=O)[C@H](CC(N)=O)NC(=O)[C@H](CO)NC(=O)[C@H](CO)NC(=O)[C@H](CCCCN)NC(=O)[C@H](Cc1c[nH]cn1)NC(=O)[C@H](CC(C)C)NC(=O)[C@H](CCC(=O)O)NC(=O)[C@H](CC(N)=O)NC(=O)[C@H](C)NC(=O)[C@H](CC(C)C)NC(=O)[C@H](CCCNC(=N)N)NC(=O)[C@H](CCC(N)=O)NC(=O)[C@@H](NC(=O)[C@H](C)NC(=O)[C@@H]1CSSC[C@H](NC(=O)[C@@H](N)CO)C(=O)N[C@@H](CC(N)=O)C(=O)N[C@@H]([C@@H](C)O)C(=O)N[C@@H](CO)C(=O)N[C@@H]([C@@H](C)O)C(=O)N1)[C@@H](C)O)C(=O)N[C@@H](CC(C)C)C(=O)N1CCC[C@H]1C(=O)N1CCC[C@H]1C(=O)N[C@H](C(=O)N[C@@H](CCCCN)C(=O)N[C@H](C(=O)NCC(=O)N[C@@H](CO)C(=O)N[C@@H](CCC(=O)O)C(=O)N[C@H](C(=O)N[C@@H](Cc1ccc(O)cc1)C(N)=O)[C@@H](C)O)C(C)C)[C@@H](C)O` [Compound A57] (H-SCNTSTCATQRLANELHKSSNNFGPILPPTKVGSETY-NH2; disulfide 2-7) displayed a clearance of 10.7 mL/min/kg.
The value for `CC[C@H](C)[C@H](NC(=O)[C@@H]1CCCN1C(=O)CNC(=O)[C@H](Cc1ccccc1)NC(=O)[C@H](CC(N)=O)NC(=O)[C@H](CC(N)=O)NC(=O)[C@H](CO)NC(=O)[C@H](CO)NC(=O)[C@H](CCCNC(=N)N)NC(=O)[C@H](Cc1c[nH]cn1)NC(=O)[C@H](CC(C)C)NC(=O)[C@H](CCC(=O)O)NC(=O)[C@H](CC(N)=O)NC(=O)[C@H](CO)NC(=O)[C@H](CC(C)C)NC(=O)[C@H](CCCNC(=N)N)NC(=O)[C@H](CO)NC(=O)[C@@H](NC(=O)[C@H](C)NC(=O)[C@@H]1CSSC[C@H](NC(=O)[C@@H](N)CO)C(=O)N[C@@H](CC(N)=O)C(=O)N[C@@H]([C@@H](C)O)C(=O)N[C@@H](CO)C(=O)N[C@@H]([C@@H](C)O)C(=O)N1)[C@@H](C)O)C(=O)N[C@@H](CC(C)C)C(=O)N1CCC[C@H]1C(=O)N1CCC[C@H]1C(=O)N[C@H](C(=O)N[C@@H](CCCCN)C(=O)N[C@H](C(=O)NCC(=O)N[C@@H](CO)C(=O)N[C@@H](CCC(=O)O)C(=O)N[C@H](C(=O)N[C@@H](Cc1ccc(O)cc1)C(N)=O)[C@@H](C)O)C(C)C)[C@@H](C)O` [Compound A33] (H-SCNTSTCATSRLSNELHRSSNNFGPILPPTKVGSETY-NH2; disulfide 2-7) was 17.7 mL/min/kg; that for `CC[C@H](C)[C@H](NC(=O)[C@@H]1CCCN1C(=O)CNC(=O)[C@H](Cc1ccccc1)NC(=O)[C@H](CCC(=O)O)NC(=O)[C@H](CC(N)=O)NC(=O)[C@H](CO)NC(=O)[C@H](CO)NC(=O)[C@H](CCCCN)NC(=O)[C@@H](NC(=O)[C@H](CC(C)C)NC(=O)[C@H](Cc1ccc(O)cc1)NC(=O)[C@H](CC(N)=O)NC(=O)[C@H](C)NC(=O)[C@H](CC(C)C)NC(=O)[C@H](CCCNC(=N)N)NC(=O)[C@H](CCC(N)=O)NC(=O)[C@@H](NC(=O)[C@H](C)NC(=O)[C@@H]1CSSC[C@H](NC(=O)[C@@H](N)CO)C(=O)N[C@@H](CC(N)=O)C(=O)N[C@@H]([C@@H](C)O)C(=O)N[C@@H](CO)C(=O)N[C@@H]([C@@H](C)O)C(=O)N1)[C@@H](C)O)C(C)C)C(=O)N[C@@H](CC(C)C)C(=O)N1CCC[C@H]1C(=O)N1CCC[C@H]1C(=O)N[C@H](C(=O)N[C@@H](CCCCN)C(=O)N[C@H](C(=O)NCC(=O)N[C@@H](CO)C(=O)N[C@@H](CCC(=O)O)C(=O)N[C@H](C(=O)N[C@@H](Cc1ccc(O)cc1)C(N)=O)[C@@H](C)O)C(C)C)[C@@H](C)O` [Compound A15] (H-SCNTSTCATQRLANYLVKSSNEFGPILPPTKVGSETY-NH2; disulfide 2-7) was 14.4 mL/min/kg.
As for `CC[C@H](C)[C@H](NC(=O)[C@@H]1CCCN1C(=O)CNC(=O)[C@H](Cc1ccccc1)NC(=O)[C@H](CCC(=O)O)NC(=O)[C@H](CC(N)=O)NC(=O)[C@H](CO)NC(=O)[C@H](CO)NC(=O)[C@H](CCCCN)NC(=O)[C@@H](NC(=O)[C@H](CC(C)C)NC(=O)[C@H](Cc1ccccc1)NC(=O)[C@H](CC(N)=O)NC(=O)[C@H](C)NC(=O)[C@H](CC(C)C)NC(=O)[C@H](CCCNC(=N)N)NC(=O)[C@H](CCC(N)=O)NC(=O)[C@@H](NC(=O)[C@H](C)NC(=O)[C@@H]1CSSC[C@H](NC(=O)[C@@H](N)CO)C(=O)N[C@@H](CC(N)=O)C(=O)N[C@@H]([C@@H](C)O)C(=O)N[C@@H](CO)C(=O)N[C@@H]([C@@H](C)O)C(=O)N1)[C@@H](C)O)C(C)C)C(=O)N[C@@H](CC(C)C)C(=O)N1CCC[C@H]1C(=O)N1CCC[C@H]1C(=O)N[C@H](C(=O)N[C@@H](CCCCN)C(=O)N[C@H](C(=O)NCC(=O)N[C@@H](CO)C(=O)N[C@@H](CCC(=O)O)C(=O)N[C@H](C(=O)N[C@@H](Cc1ccc(O)cc1)C(N)=O)[C@@H](C)O)C(C)C)[C@@H](C)O` [Compound A43] (H-SCNTSTCATQRLANFLVKSSNEFGPILPPTKVGSETY-NH2; disulfide 2-7), the figure is 23.2 mL/min/kg; as for `CC[C@H](C)[C@H](NC(=O)[C@@H]1CCCN1C(=O)CNC(=O)[C@H](Cc1ccccc1)NC(=O)[C@H](CCC(=O)O)NC(=O)[C@H](CC(N)=O)NC(=O)[C@H](CO)NC(=O)[C@H](CO)NC(=O)[C@H](CCCCN)NC(=O)[C@@H](NC(=O)[C@@H](CC(C)C)NC(=O)[C@H](Cc1ccccc1)NC(=O)[C@H](CC(N)=O)NC(=O)[C@H](C)NC(=O)[C@H](CC(C)C)NC(=O)[C@H](CCCNC(=N)N)NC(=O)[C@H](CCC(N)=O)NC(=O)[C@@H](NC(=O)[C@H](C)NC(=O)[C@@H]1CSSC[C@H](NC(=O)[C@@H](N)CO)C(=O)N[C@@H](CC(N)=O)C(=O)N[C@@H]([C@@H](C)O)C(=O)N[C@@H](CO)C(=O)N[C@@H]([C@@H](C)O)C(=O)N1)[C@@H](C)O)C(C)C)C(=O)N[C@@H](CC(C)C)C(=O)N1CCC[C@H]1C(=O)N1CCC[C@H]1C(=O)N[C@H](C(=O)N[C@@H](CCCCN)C(=O)N[C@H](C(=O)NCC(=O)N[C@@H](CO)C(=O)N[C@@H](CCC(=O)O)C(=O)N[C@H](C(=O)N[C@@H](Cc1ccc(O)cc1)C(N)=O)[C@@H](C)O)C(C)C)[C@@H](C)O` [Compound A6] (H-SCNTSTCATQRLANF[dL]VKSSNEFGPILPPTKVGSETY-NH2; disulfide 2-7; N-terminus assumed), 26.4 mL/min/kg; as for `CC[C@H](C)[C@H](NC(=O)[C@@H]1CCCN1C(=O)CNC(=O)[C@H](Cc1ccccc1)NC(=O)[C@H](CC(N)=O)NC(=O)[C@H](CC(N)=O)NC(=O)[C@H](CO)NC(=O)[C@H](CO)NC(=O)[C@H](Cc1c[nH]cn1)NC(=O)[C@@H](NC(=O)[C@H](CC(C)C)NC(=O)[C@H](Cc1ccc(O)cc1)NC(=O)[C@H](CC(N)=O)NC(=O)[C@H](C)NC(=O)[C@H](CC(C)C)NC(=O)[C@H](CCCNC(=N)N)NC(=O)[C@H](CO)NC(=O)[C@@H](NC(=O)[C@H](C)NC(=O)[C@@H]1CSSC[C@H](NC(=O)[C@@H](N)CO)C(=O)N[C@@H](CC(N)=O)C(=O)N[C@@H]([C@@H](C)O)C(=O)N[C@@H](CO)C(=O)N[C@@H]([C@@H](C)O)C(=O)N1)[C@@H](C)O)C(C)C)C(=O)N[C@@H](CC(C)C)C(=O)N1CCC[C@H]1C(=O)N1CCC[C@H]1C(=O)N[C@H](C(=O)N[C@@H](CCCCN)C(=O)N[C@H](C(=O)NCC(=O)N[C@@H](CO)C(=O)N[C@@H](CCC(=O)O)C(=O)N[C@H](C(=O)N[C@@H](Cc1ccc(O)cc1)C(N)=O)[C@@H](C)O)C(C)C)[C@@H](C)O` [Compound A111] (H-SCNTSTCATSRLANYLVHSSNNFGPILPPTKVGSETY-NH2; disulfide 2-7), 20 mL/min/kg.
